Assay results as given in patent US5856510A, “5-alkenyl and 5-alkynyl indole compounds” (Allelix Biopharmaceuticals Inc., priority 1996, dated 1999).
Where two headings read alike, the source gives them in different places.

Target: T1, 5-HT1D-like receptor (rabbit isolated saphenous vein) (Oryctolagus cuniculus, UniProt P49144)
T1 construct: contracting the rabbit saphenous vein; from tissue; host or cells: rabbit saphenous vein rings, endothelium removed
Experiment: Agonist Assay: contraction of the rabbit isolated saphenous vein (5-HT1D-like receptor agonist activity)
Assay type: cell-based, rabbit (male New Zealand White)

T1 sequence (P49144 whole entry): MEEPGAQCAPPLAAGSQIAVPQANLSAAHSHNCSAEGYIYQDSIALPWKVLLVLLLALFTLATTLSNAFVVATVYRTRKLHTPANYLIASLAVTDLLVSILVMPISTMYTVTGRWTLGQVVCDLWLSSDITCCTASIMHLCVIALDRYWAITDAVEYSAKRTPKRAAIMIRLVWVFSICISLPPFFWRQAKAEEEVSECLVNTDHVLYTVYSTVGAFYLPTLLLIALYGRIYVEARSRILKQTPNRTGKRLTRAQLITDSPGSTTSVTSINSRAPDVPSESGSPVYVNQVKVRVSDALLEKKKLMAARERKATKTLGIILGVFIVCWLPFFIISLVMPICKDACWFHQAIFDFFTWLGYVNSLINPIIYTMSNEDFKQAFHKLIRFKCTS

C=Cc1ccc2[nH]cc(C[C@H]3CCCN3C)c2c1 [Example 7c, (R)-3-[(N-Methylpyrrolidin-2-yl)methyl]-5-vinyl-1H-indole]
EC50: 80 nM

C=Cc1ccc2[nH]cc(C3CCN(C)C3)c2c1 (stereo not shown) [Example 7d, 3-(N-Methylpyrrolidin-3-yl)-5-vinyl-1H-indole]
EC50 (contraction of rabbit isolated saphenous vein, concentration causing 50% of the maximum contraction effected by the compound, prazosin, idazoxan and indomethacin 1 μM each, 37° C., pH 7.4, read-out: EC50): 180 nM

C=Cc1ccc2[nH]cc(CCN3CCCC3)c2c1 [Example 7b, 3-[2-(N-Pyrrolidinyl)ethyl]-5-vinyl-1H-indole]
EC50: 5800 nM

C=Cc1ccc2[nH]cc(CCN(C)C)c2c1 [Example 7a, 3-[2-(N,N-Dimethylamino)ethyl]-5-vinyl-1H-indole]
EC50: 130 nM
